“And” between values parts separate entries of the source, which are not always exact repeats. Equal entries are not always repeated. Inconclusive results and toxic doses are left out.
Test system: BDF1 mice, P388 leukemia ip, median survival T/C
Experiment: NCI In Vivo Anticancer Drug Screen. Data for tumor model P388 Leukemia (intraperitoneal) in B6D2F1 (BDF1) mice
Settings: endpoint: median survival time, higher = longer survival
How it was run: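 Transplantable tumour in mice; compound vs vehicle dosing; survival scored; ratio of treated to control reported.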

[1] = dose: 6.25 mg/kg/injection, schedule: Q01DX009 (ip), vehicle: saline
[2] = dose: 12.5 mg/kg/injection, schedule: Q01DX009 (ip), vehicle: saline
[3] = dose: 25.0 mg/kg/injection, schedule: Q01DX009 (ip), vehicle: saline
[4] = dose: 12.5 mg/kg/injection, schedule: Q01DX009 (ip), vehicle: Klucel (hydroxypropylcellulose) (HPC)
[5] = dose: 12.5 mg/kg/injection, schedule: Q01DX009 (ip), vehicle: other
[6] = dose: 25.0 mg/kg/injection, schedule: Q01DX009 (ip), vehicle: Klucel (hydroxypropylcellulose) (HPC)
[7] = dose: 100.0 mg/kg/injection, schedule: Q01DX009 (ip), vehicle: Klucel (hydroxypropylcellulose) (HPC)
[8] = dose: 100.0 mg/kg/injection, schedule: Q04DX003 (ip), vehicle: Klucel (hydroxypropylcellulose) (HPC)
[9] = dose: 200.0 mg/kg/injection, schedule: Q01DX009 (ip), vehicle: Klucel (hydroxypropylcellulose) (HPC)
[10] = dose: 200.0 mg/kg/injection, schedule: Q04DX003 (ip), vehicle: Klucel (hydroxypropylcellulose) (HPC)
[11] = dose: 50.0 mg/kg/injection, schedule: Q01DX009 (ip), vehicle: saline with Tween-80
[12] = dose: 100.0 mg/kg/injection, schedule: Q01DX009 (ip), vehicle: saline with Tween-80
[13] = dose: 75.0 mg/kg/injection, schedule: Q01DX009 (ip), vehicle: saline with Tween-80
[14] = dose: 50.0 mg/kg/injection, schedule: Q01DX009 (ip), vehicle: Klucel (hydroxypropylcellulose) (HPC)
[15] = dose: 200.0 mg/kg/injection, schedule: Q04DX003 (ip), vehicle: saline with Tween-80
[16] = dose: 400.0 mg/kg/injection, schedule: Q04DX003 (ip), vehicle: saline with Tween-80
[17] = dose: 100.0 mg/kg/injection, schedule: Q04DX003 (ip), vehicle: saline with Tween-80
[18] = dose: 200.0 mg/kg/injection, schedule: Q01DX009 (ip), vehicle: saline with Tween-80
[19] = dose: 400.0 mg/kg/injection, schedule: Q01DX009 (ip), vehicle: saline with Tween-80
[20] = dose: 50.0 mg/kg/injection, schedule: Q01DX009 (ip), vehicle: water
[21] = dose: 100.0 mg/kg/injection, schedule: Q04DX003 (ip), vehicle: water
[22] = dose: 200.0 mg/kg/injection, schedule: Q04DX003 (ip), vehicle: water

Cc1nc(CN(C)C)c2cnccn12
T/C [1]: 95 % of control | T/C [2]: 104 % of control | T/C [3]: 100 % of control

FC(F)(F)c1cc(CN(CCCl)CCCl)cc(C(F)(F)F)c1
T/C [4]: 101 % of control | T/C [5]: 116 % of control | T/C [2]: 100 % of control | T/C [6]: 108 % of control and 120 % of control | T/C [3]: 188 % of control | T/C (dose: 50.0 mg/kg/injection, schedule: Q01DX009 (ip), vehicle: other): 150 % of control | T/C (dose: 50.0 mg/kg/injection, schedule: Q01DX009 (ip), vehicle: saline): 172 % of control | T/C [7]: 153 % of control and 165 % of control | T/C (dose: 100.0 mg/kg/injection, schedule: Q01DX009 (ip), vehicle: saline): 194 % of control

C#CCOC(=O)Nc1cccc2ccccc12
T/C [7]: 100 % of control | T/C [8]: 100 % of control | T/C [9]: 110 % of control | T/C [10]: 100 % of control | T/C (dose: 400.0 mg/kg/injection, schedule: Q01DX009 (ip), vehicle: Klucel (hydroxypropylcellulose) (HPC)): 120 % of control | T/C (dose: 400.0 mg/kg/injection, schedule: Q04DX003 (ip), vehicle: Klucel (hydroxypropylcellulose) (HPC)): 109 % of control

O=[N+]([O-])c1ccc(S(=O)(=O)c2ccccc2)c2c1no[n+]2[O-]
T/C (dose: 10.0 mg/kg/injection, schedule: Q01DX009 (ip), vehicle: saline with Tween-80): 109 % of control | T/C (dose: 20.0 mg/kg/injection, schedule: Q01DX009 (ip), vehicle: saline with Tween-80): 106 % of control | T/C (dose: 40.0 mg/kg/injection, schedule: Q01DX009 (ip), vehicle: saline with Tween-80): 106 % of control

C/C(=N\NC(=O)C(=O)N/N=C(\C)c1ccccc1)c1ccccc1
T/C [11]: 96 % of control | T/C [12]: 91 % of control

Nc1nc(N)c2cc(NCc3ccc(Br)cc3)ccc2n1
T/C (dose: 3.12 mg/kg/injection, schedule: Q01DX009 (ip), vehicle: Klucel (hydroxypropylcellulose) (HPC)): 105 % of control | T/C (dose: 6.25 mg/kg/injection, schedule: Q01DX009 (ip), vehicle: Klucel (hydroxypropylcellulose) (HPC)): 100 % of control | T/C [4]: 95 % of control

CC1(CO)C(O)CCC2(C)C1CCC1CC3CC12CCC3(O)CO (stereo not drawn)
T/C [13]: 155 % of control | T/C (dose: 150.0 mg/kg/injection, schedule: Q01DX009 (ip), vehicle: saline with Tween-80): 155 % of control

CCCCCCCCCCC(C)c1ccc(S(=O)(=O)O)cc1 (stereo not drawn)
T/C (dose: 12.5 mg/kg/injection, schedule: Q01DX009 (ip), vehicle: saline with Tween-80): 103 % of control | T/C (dose: 25.0 mg/kg/injection, schedule: Q01DX009 (ip), vehicle: saline with Tween-80): 110 % of control | T/C (dose: 33.0 mg/kg/injection, schedule: Q01DX009 (ip), vehicle: saline with Tween-80): 120 % of control | T/C [11]: 115 % of control and 116 % of control and 118 % of control | T/C [13]: 110 % of control | T/C [12]: 119 % of control

c1ccc2c(c1)C1c3ccccc3C2C2COCC12 (stereo not drawn)
T/C [6]: 105 % of control | T/C [14]: 110 % of control | T/C (dose: 75.0 mg/kg/injection, schedule: Q04DX003 (ip), vehicle: Klucel (hydroxypropylcellulose) (HPC)): 108 % of control | T/C [7]: 100 % of control | T/C (dose: 150.0 mg/kg/injection, schedule: Q04DX003 (ip), vehicle: Klucel (hydroxypropylcellulose) (HPC)): 104 % of control | T/C (dose: 300.0 mg/kg/injection, schedule: Q04DX003 (ip), vehicle: Klucel (hydroxypropylcellulose) (HPC)): 86 % of control

C=Cc1ccccc1-c1ccccc1C(=O)OC
T/C [15]: 87 % of control | T/C [16]: 105 % of control

O=Cc1ccccc1B(O)O
T/C [14]: 108 % of control and 109 % of control | T/C (dose: 50.0 mg/kg/injection, schedule: Q04DX003 (ip), vehicle: Klucel (hydroxypropylcellulose) (HPC)): 92 % of control | T/C [7]: 108 % of control and 118 % of control | T/C [8]: 100 % of control | T/C [10]: 107 % of control

O=c1[nH]c2c(ccc3cccnc32)c2c1CCC2
T/C [17]: 92 % of control | T/C [16]: 93 % of control

CC(=O)CC(=O)N1CCCCCC1
T/C [12]: 89 % of control | T/C [17]: 109 % of control | T/C [18]: 92 % of control | T/C [15]: 90 % of control | T/C [19]: 107 % of control | T/C [16]: 104 % of control

CCC1CC[N-]CC1.CCC1CC[N-]CC1.[Cl][Pt+2]([Cl])([Cl])[Cl]
T/C (dose: 3.12 mg/kg/injection, schedule: Q01DX009 (ip), vehicle: saline): 107 % of control | T/C [1]: 110 % of control | T/C [2]: 110 % of control

CCOC(=O)c1c(C)[nH]c(C)c1-c1ccccc1
T/C (dose: 100.0 mg/kg/injection, schedule: Q01DX001 (ip), vehicle: Klucel (hydroxypropylcellulose) (HPC)): 109 % of control | T/C (dose: 200.0 mg/kg/injection, schedule: Q01DX001 (ip), vehicle: Klucel (hydroxypropylcellulose) (HPC)): 109 % of control | T/C (dose: 400.0 mg/kg/injection, schedule: Q01DX001 (ip), vehicle: Klucel (hydroxypropylcellulose) (HPC)): 109 % of control

COC(=O)C(Sc1ccc(Cl)cc1)C1SC(=S)N(Cc2ccccc2)C1=O (stereo not drawn)
T/C [11]: 104 % of control | T/C [12]: 118 % of control | T/C [18]: 109 % of control

O/N=C1/CCCc2ccccc21
T/C [12]: 86 % of control | T/C [18]: 86 % of control | T/C [19]: 86 % of control

Cc1cc(=O)c2cc(N(C)C)ccc2[nH]1
T/C (dose: 0.78 mg/kg/injection, schedule: Q01DX009 (ip), vehicle: water): 110 % of control | T/C (dose: 1.56 mg/kg/injection, schedule: Q01DX009 (ip), vehicle: water): 100 % of control | T/C (dose: 3.12 mg/kg/injection, schedule: Q01DX009 (ip), vehicle: water): 101 % of control | T/C (dose: 6.25 mg/kg/injection, schedule: Q01DX009 (ip), vehicle: water): 93 % of control | T/C (dose: 12.5 mg/kg/injection, schedule: Q01DX009 (ip), vehicle: water): 94 % of control and 116 % of control | T/C (dose: 25.0 mg/kg/injection, schedule: Q01DX009 (ip), vehicle: water): 114 % of control | T/C [20]: 91 % of control | T/C (dose: 50.0 mg/kg/injection, schedule: Q04DX003 (ip), vehicle: water): 95 % of control | T/C (dose: 100.0 mg/kg/injection, schedule: Q01DX009 (ip), vehicle: water): 107 % of control | T/C [21]: 103 % of control | T/C [22]: 103 % of control | T/C (dose: 400.0 mg/kg/injection, schedule: Q01DX009 (ip), vehicle: water): 86 % of control | T/C (dose: 400.0 mg/kg/injection, schedule: Q04DX003 (ip), vehicle: water): 96 % of control

COc1cc(C=Nc2cccc(F)c2)ccc1N(CCCl)CCCl
T/C (dose: 1.25 mg/kg/injection, schedule: Q01DX009 (ip), vehicle: other): 180 % of control | T/C (dose: 2.5 mg/kg/injection, schedule: Q01DX009 (ip), vehicle: other): 195 % of control | T/C (dose: 3.13 mg/kg/injection, schedule: Q01DX009 (ip), vehicle: other): 168 % of control | T/C (dose: 5.0 mg/kg/injection, schedule: Q01DX009 (ip), vehicle: other): 280 % of control | T/C (dose: 6.25 mg/kg/injection, schedule: Q01DX009 (ip), vehicle: other): 181 % of control | T/C [5]: 95 % of control | T/C (dose: 25.0 mg/kg/injection, schedule: Q04DX003 (ip), vehicle: saline sonified): 95 % of control | T/C (dose: 50.0 mg/kg/injection, schedule: Q04DX003 (ip), vehicle: saline sonified): 100 % of control | T/C (dose: 100.0 mg/kg/injection, schedule: Q04DX003 (ip), vehicle: saline sonified): 195 % of control

CC[N+](CC)(CC)CCC[N+](CC)(CC)CC
T/C [20]: 89 % of control | T/C [21]: 109 % of control | T/C [22]: 90 % of control

O=C1COCC(=O)C1
T/C (dose: 100.0 mg/kg/injection, schedule: Q01DX001 (ip), vehicle: saline): 96 % of control | T/C (dose: 200.0 mg/kg/injection, schedule: Q01DX001 (ip), vehicle: saline): 107 % of control | T/C (dose: 400.0 mg/kg/injection, schedule: Q01DX001 (ip), vehicle: saline): 100 % of control

FC(F)(F)c1cc(NC2=NCCN=C(Nc3cc(C(F)(F)F)cc(C(F)(F)F)c3)SS2)cc(C(F)(F)F)c1
T/C [14]: 102 % of control | T/C [7]: 96 % of control | T/C [9]: 110 % of control
